Experimental data from paper PMC2613953, “Characterisation of ATP analogues to cross-link and label P2X receptors” (Neuropharmacology, 2009).

Assays:
Format in all cases: cell-based
[1] = target: T1, P2X3 receptor (Rattus norvegicus, UniProt P49654); test: whole cell patch clamp, agonist current at approximate EC50 concentration
T1 construct: gene P2rx3; rat P2X3 transiently expressed in HEK293 cells
T1 sequence (P49654 1-397): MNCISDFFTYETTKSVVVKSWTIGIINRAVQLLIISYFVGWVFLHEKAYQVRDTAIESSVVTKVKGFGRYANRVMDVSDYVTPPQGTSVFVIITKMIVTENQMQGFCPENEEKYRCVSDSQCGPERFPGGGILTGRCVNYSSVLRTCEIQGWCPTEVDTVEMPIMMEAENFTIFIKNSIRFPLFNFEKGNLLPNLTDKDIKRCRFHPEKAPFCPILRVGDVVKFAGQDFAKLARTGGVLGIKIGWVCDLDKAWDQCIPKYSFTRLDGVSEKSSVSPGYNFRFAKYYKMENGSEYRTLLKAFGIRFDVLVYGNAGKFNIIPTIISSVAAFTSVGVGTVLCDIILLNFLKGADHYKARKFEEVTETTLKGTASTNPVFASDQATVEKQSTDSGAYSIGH

[2] = target: T2, P2X1 receptor (Homo sapiens, UniProt P51575); test: competition with radiolabelled photo-reactive ATP analogues; whole cell patch clamp agonism
T2 construct: gene P2RX1; human P2X1 receptor stably expressed in HEK293 cells
T2 sequence (P51575 1-399): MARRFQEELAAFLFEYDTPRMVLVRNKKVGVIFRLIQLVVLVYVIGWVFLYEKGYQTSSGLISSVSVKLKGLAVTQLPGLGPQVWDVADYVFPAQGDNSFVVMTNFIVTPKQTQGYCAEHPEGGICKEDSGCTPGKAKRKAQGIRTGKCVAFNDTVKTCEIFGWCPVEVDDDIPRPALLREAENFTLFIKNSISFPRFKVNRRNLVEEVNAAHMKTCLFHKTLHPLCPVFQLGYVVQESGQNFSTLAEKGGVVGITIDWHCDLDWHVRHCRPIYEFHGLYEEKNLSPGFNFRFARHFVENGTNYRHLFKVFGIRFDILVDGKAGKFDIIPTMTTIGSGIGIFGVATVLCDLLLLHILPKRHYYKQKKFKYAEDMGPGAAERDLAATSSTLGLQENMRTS

[3] = target: T3, P2X2 receptor (Rattus norvegicus, UniProt P49653); test: whole cell patch clamp, agonist current at approximate EC50 concentration
T3 construct: gene P2rx2; rat P2X2 transiently expressed in HEK293 cells
T3 sequence (P49653 1-472): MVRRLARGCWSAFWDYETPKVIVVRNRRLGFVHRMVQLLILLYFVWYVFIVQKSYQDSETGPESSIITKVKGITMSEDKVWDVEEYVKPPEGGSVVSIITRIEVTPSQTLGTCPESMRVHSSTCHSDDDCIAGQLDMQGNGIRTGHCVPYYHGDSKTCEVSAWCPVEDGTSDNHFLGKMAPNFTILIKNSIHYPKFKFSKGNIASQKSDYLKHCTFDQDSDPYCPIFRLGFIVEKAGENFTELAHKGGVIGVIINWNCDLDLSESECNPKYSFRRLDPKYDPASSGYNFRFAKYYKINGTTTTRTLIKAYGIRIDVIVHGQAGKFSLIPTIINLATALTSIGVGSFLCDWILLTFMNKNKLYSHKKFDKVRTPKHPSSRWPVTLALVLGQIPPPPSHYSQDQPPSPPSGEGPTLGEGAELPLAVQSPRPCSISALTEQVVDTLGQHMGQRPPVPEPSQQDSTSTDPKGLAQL

[4] = target: T2, P2X1 receptor; test: whole cell patch clamp; partial agonist; UV cross-linking with ATP/suramin protection
[5] = target: T1, P2X3 receptor; test: UV photo-cross-linking, then whole cell patch clamp ([…] reduction of ATP current)
[6] = target: T3, P2X2 receptor; test: as above
[7] = target: T4, P2X4 receptor (Homo sapiens, UniProt Q99571); test: as above
T4 construct: gene P2RX4; human P2X4 receptor stably expressed in HEK293 cells
T4 sequence (Q99571 1-388): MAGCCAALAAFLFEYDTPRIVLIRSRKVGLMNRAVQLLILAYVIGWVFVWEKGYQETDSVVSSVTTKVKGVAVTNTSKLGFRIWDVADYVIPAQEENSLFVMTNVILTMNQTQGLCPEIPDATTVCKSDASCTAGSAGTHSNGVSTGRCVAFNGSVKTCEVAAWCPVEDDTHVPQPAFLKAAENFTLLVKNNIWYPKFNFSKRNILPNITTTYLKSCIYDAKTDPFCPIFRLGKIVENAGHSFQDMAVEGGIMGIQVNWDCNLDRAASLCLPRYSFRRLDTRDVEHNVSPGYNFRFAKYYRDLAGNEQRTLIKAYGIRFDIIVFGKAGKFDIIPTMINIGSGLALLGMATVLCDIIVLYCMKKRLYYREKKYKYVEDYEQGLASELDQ

[8] = target: T2, P2X1 receptor; test: UV photo-cross-linking of radiolabelled analogue, immunoprecipitation and autoradiography with ATP competition; patch clamp agonism
Source text: UV photo-cross-linking of radiolabelled analogue, immunoprecipitation and autoradiography with ATP competition; patch clamp agonism on P2X1 receptor | It confirms the identification of 2-azido ATP as a cross-linking compound which directly binds to the P2X1 receptor.

**Q.** For `Nc1ncnc2c1ncn2[C@@H]1O[C@H](COP(=O)(O)OP(=O)(O)OP(=O)(O)O)[C@@H](O)[C@H]1O` [ATP], which EC50 [1] is on record?
**A.** ~ 1 μM

**Q.** And the EC50 [2]?
**A.** ~1000 nM

**Q.** And the EC50 [3]?
**A.** ~ 10 μM

**Q.** For `Nc1ncnc2c1ncn2[C@@H]1O[C@H](COP(=O)(O)OP(=O)(O)OP(=O)(O)O)[C@@H](OC(=O)c2ccc(C(=O)c3ccccc3)cc2)[C@H]1O` [C, 2′,3′-O-(4-benzoylbenzoyl)-ATP], which “whole cell patch clamp; partial agonist; UV cross-linking with ATP/suramin prote” value [4] is on record?
**A.** These results suggest that the BzATP is acting to cross-link to the P2X1 receptor at the ATP binding site.

**Q.** Which “% reduction” value [5] does the source give for `[N-]=[N+]=Nc1nc(N)c2ncn([C@@H]3O[C@H](COP(=O)(O)OP(=O)(O)OP(=O)(O)O)[C@@H](O)[C@H]3O)c2n1` [A, 2-azido ATP] here?
**A.** 83 % reduction

**Q.** What about the “% reduction” value [6] of the same molecule?
**A.** 80 % reduction

**Q.** What about the “% reduction” value [7] of the same molecule?
**A.** 45 % reduction

**Q.** What about the EC50 [8] of the same molecule?
**A.** ~3000 nM
